Measured values taken from patent US20150265691A1 (priority 2006, published 2015).

Tested on: rabbit anti-B. anthracis spore polyclonal IgG antibodies
Format: binding

Row | Compound | IgG signal detected by glycan arrays (n = 3) Mean
1 | C[C@H](O)[C@H](O)[C@@H](O)[C@@H](O)C=O [Saccharide 6, L-Rhamnose] | 1.03
2 | C[C@@H](O)[C@H](O)[C@H](O)[C@@H](O)C=O [Saccharide 7, D-Fucose] | 1.88
3 | O=C[C@H](O)[C@@H](O)[C@@H](O)[C@H](O)CO [Saccharide 8, D-Galactose] | 1.06
4 | O=C[C@H](O)[C@@H](O)[C@H](O)[C@H](O)CO [Saccharide 9, D-Glucose] | 1.04
5 | O=C[C@@H](O)[C@@H](O)[C@H](O)[C@H](O)CO [Saccharide 10, D-Mannose] | 1.03
6 | CC(=O)N[C@@H](C=O)[C@@H](O)[C@@H](O)[C@H](O)CO [Saccharide 11, N-acetyl-2-amino-2-deoxy-D-galactose] | 1.03
7 | O=C[C@H](O)[C@@H](O)[C@@H](O)CO [Saccharide 12, L-Arabinose] | 1.03
8 | O=C[C@H](O)[C@H](O)[C@@H](O)[C@@H](O)CO [Saccharide 13, L-Mannose] | 1.06
9 | COC(=O)CCCCCO[C@@H]1O[C@@H](C)[C@H](O)[C@@H](O)[C@H]1O [Saccharide 14, 5-(Methoxycarbonyl)pentyl α-L-rhamnopyranoside] | 0.97
10 | COC(=O)CCCCCO[C@H]1O[C@@H](C)[C@H](O)[C@@H](O)[C@H]1O [Saccharide 15, 5-(Methoxycarbonyl)pentyl β-L-rhamnopyranoside] | 0.95
11 | COC(=O)CCCCCO[C@@H]1O[C@@H](C)[C@H](O)[C@@H](O[C@@H]2O[C@@H](C)[C@H](O)[C@@H](O)[C@H]2O)[C@H]1O [Saccharide 16, 5-(Methoxycarbonyl)pentyl α-L-rhamnopyranosyl-(1→3)-α-L-rhamnopyranoside] | 1.00
12 | COC(=O)CCCCCO[C@@H]1O[C@@H](C)[C@H](O)[C@@H](O)[C@H]1O[C@@H]1O[C@@H](C)[C@H](O)[C@@H](O)[C@H]1O [Saccharide 18, 5-(Methoxycarbonyl)pentyl α-L-rhamnopyranosyl-(1→2)-α-L-rhamnopyranoside] | 1.26
13 | COC(=O)CCCCCO[C@H]1O[C@@H](C)[C@H](O)[C@@H](O)[C@H]1O[C@@H]1O[C@@H](C)[C@H](O)[C@@H](O)[C@H]1O [Saccharide 19, 5-(Methoxycarbonyl)pentyl α-L-rhamnopyranosyl-(1→2)-β-L-rhamnopyranoside] | 0.98
14 | COC(=O)CCCCCO[C@H]1O[C@@H](C)[C@H](O)[C@@H](O)[C@H]1O[C@@H]1O[C@@H](C)[C@H](O)[C@@H](O[C@@H]2O[C@@H](C)[C@H](O)[C@@H](O)[C@H]2O)[C@H]1O [Saccharide 20, 5-(Methoxycarbonyl)pentyl α-L-rhamnopyranosyl-(1→3)-α-L-rhamnopyranosyl-(1→2)-β-L-rhamnopyranoside] | 0.95
15 | CO[C@H]1O[C@H](CO)[C@H](O)[C@H](O)[C@H]1O[C@@H]1O[C@@H](C)[C@H](O)[C@@H](O)[C@H]1O [Saccharide 21, Methyl <-L-rhamnopyranosyl-(1→2)-<-D-galactopyranoside, reference compound] | 1.08
16 | CO[C@H]1O[C@H](CO)[C@H](O)[C@H](O)[C@H]1O[C@@H]1O[C@@H](C)[C@H](O)[C@@H](O[C@@H]2O[C@@H](C)[C@H](O)[C@@H](O[C@H]3O[C@H](CO)[C@@H](O)[C@H](O)[C@H]3NC(C)=O)[C@H]2O)[C@H]1O [Saccharide 22, Methyl 2-acetamido-2-deoxy-<-D-glucopyranosyl-(1→3)-<-L-rhamnopyranosyl-(1→3)-<-L-rhamnopyranosyl-(1→2)-<-D-galactopyranoside, reference compound] | 0.95
17 | CO[C@H]1O[C@H](CO)[C@@H](O)[C@H](O[C@H]2O[C@H](CO)[C@H](O)[C@H](O)[C@H]2O[C@@H]2O[C@@H](C)[C@H](O)[C@@H](O)[C@H]2O)[C@H]1NC(C)=O [Saccharide 23, Methyl <-L-rhamnopyranosyl-(1→2)-<-D-galactopyranosyl-(1→3)-2-acetamido-2-deoxy-<-D-glucopyranoside] | 1.01
18 | CO[C@@H]1O[C@@H](C)[C@H](O)[C@@H](O[C@@H]2O[C@@H](C)[C@H](O)[C@@H](O)[C@H]2O)[C@H]1O [Saccharide 24, Methyl <-L-rhamnopyranosyl-(1→3)-<-L-rhamnopyranoside, reference compound] | 1.02
19 | CO[C@H]1O[C@H](CO)[C@H](O)[C@H](O)[C@H]1O[C@@H]1O[C@@H](C)[C@H](O)[C@@H](O[C@@H]2O[C@@H](C)[C@H](O)[C@@H](O)[C@H]2O)[C@H]1O [Saccharide 25, Methyl <-L-rhamnopyranosyl-(1→3)-<-L-rhamnopyranosyl-(1→2)-<-D-galactopyranoside, reference compound] | 1.02
20 | CO[C@H]1O[C@H](CO)[C@@H](O)[C@H](O[C@H]2O[C@H](CO)[C@H](O)[C@H](O)[C@H]2O[C@@H]2O[C@@H](C)[C@H](O)[C@@H](O[C@@H]3O[C@@H](C)[C@H](O)[C@@H](O)[C@H]3O)[C@H]2O)[C@H]1NC(C)=O [Saccharide 26, Methyl <-L-rhamnopyranosyl-(1→3)-<-L-rhamnopyranosyl-(1→2)-<-D-galactopyranosyl-(1→3)-2-acetamido-2-deoxy-<-D-glucopyranoside] | 1.01
21 | CO[C@H]1O[C@H](C)[C@@H](NC(=O)[C@@H](O)CCO)[C@H](O)[C@@H]1O[C@H]1O[C@H](C)[C@@H](NC(=O)[C@@H](O)CCO)[C@H](O)[C@@H]1O[C@H]1O[C@H](C)[C@@H](NC(=O)[C@@H](O)CCO)[C@H](O)[C@@H]1OC [Saccharide 27, Methyl 2-O-methyl-4,6-dideoxy-4-(3-deoxy-L-glycero-tetronamido)-<-D-mannopyranosyl-(1→2)-4,6-dideoxy-4-(3-deoxy-L-glycero-tetronamido)-<-D-mannopyranosyl-(1→2)-4,6-dideoxy-4-(3-deoxy-L-glycero-tetronamido)-<-D-mannopyranoside] | 1.01
22 | CO[C@H]1O[C@H](C)[C@@H](NC(=O)[C@@H](O)CCO)[C@H](O)[C@@H]1O[C@H]1O[C@H](C)[C@@H](NC(=O)[C@@H](O)CCO)[C@H](O)[C@@H]1O[C@H]1O[C@H](C)[C@@H](NC(=O)[C@@H](O)CCO)[C@H](O)[C@@H]1O[C@H]1O[C@H](C)[C@@H](NC(=O)[C@@H](O)CCO)[C@H](O)[C@@H]1OC [Saccharide 28, Methyl 2-O-methyl-4,6-dideoxy-4-(3-deoxy-L-glycero-tetronamido)-<-D-mannopyranosyl-(1→2)-bis-[4,6-dideoxy-4-(3-deoxy-L-glycero-tetronamido)-<-D-mannopyranosyl-(1→2)]-4,6-dideoxy-4-(3-deoxy-L-glycero-tetronamido)-<-D-mannopyranoside] | 1.07
23 | Methyl 2-O-methyl-4,6-dideoxy-4-(3-deoxy-L-glycero-tetronamido)-<-D-mannopyranosyl-(1→2)-tetrakis[4,6-dideoxy-4-(3-deoxy-L-glycero-tetronamido)-<-D-mannopyranosyl-(1→2)]-4,6-dideoxy-4-(3-deoxy-L-glycero-tetronamido)-<-D-mannopyranoside [Saccharide 30] | 1.67
